The values that follow come from ChEMBL document CHEMBL5236578, “Structure-activity relationship study of 4,5-didehydroguadiscine, an aporphine alkaloid showing potent melanogenesis-inhibitory activity in B16 melanoma cells” (Bioorg Med Chem Lett, 2022).

Structures are written as SMILES. Structures can show the parent of a compound that is named as a salt.

One experiment in a line: Anti-melanogenic activity in theophylline-stimulated mouse B16 melanoma 4A5 cells assessed as inhibition of melanogenesis. Format: functional, cell-based.
Usually IC50 stands for the midpoint of a concentration-inhibition curve. Consider `COc1ccc2c(c1)C(C)(C)c1nccc3cc4c(c-2c13)OCO4`, for which the IC50 was found to be 4.9 µM.

For the compound `COc1cccc(C(C)(C)c2nccc3cc(OC)ccc23)c1`, the IC50 was over 30 µM. Regarding `COc1cccc(C(C)(C)c2nccc3cc4c(cc23)OCO4)c1`, the IC50 was over 30 µM.

For `CC1(C)c2ccccc2-c2c3c(cc4ccnc1c24)OCO3`, the concentration for half-maximal inhibition (IC50) came to 6.7 µM. The same measure, in the same setting: as for `COc1cc2c(cc1OC)[C@@H](Cc1ccc(O)cc1)N(C)CC2`, the figure is 6.5 µM; as for `CC(C)(c1ccccc1)c1nccc2ccccc12`, over 30 µM. On the same count and under the same terms, the figure for `COc1ccc2c(c1)C(C)(C)c1nccc3cc(OC)cc-2c13` is 7.5 µM; for `CC1(C)c2ccccc2-c2cccc3ccnc1c23` it is 3.1 µM. On the same count and under the same terms, the figure for `CC(C)(c1ccccc1)c1nccc2cc3c(cc12)OCO3` is over 30 µM; for `COc1cc2c3c(nccc3c1)C(C)(C)c1ccccc1-2` it is 5 µM; for `COc1ccc2c(C(C)(C)c3ccccc3)nccc2c1` it is over 30 µM. As for `COc1ccc2ccnc(C(C)(C)c3ccccc3)c2c1`, the IC50 was determined as 18.1 µM.

Turning to `COc1ccc2ccnc3c2c1-c1ccccc1C3(C)C`, the IC50 turned out to be 4 µM. The same measure, in the same setting: the figure for `OC[C@H]1O[C@@H](Oc2ccc(O)cc2)[C@H](O)[C@@H](O)[C@@H]1O` [ARBUTIN] is 174 µM. Still for that read-out and setting: the figure for `COc1cc2c3c(c1OC)-c1ccccc1C[C@H]3N(C)CC2` [NUCIFERINE HYDROCHLORIDE] is 7.1 µM.

The nature of the next experiment: Potency index, ratio of arbutin IC50 to test compound IC50 for anti-melanogenic activity in theophylline-stimulated mouse B16 melanoma 4A5 cells assessed as inhibition of melanogenesis. Format: functional.
Turning to `COc1ccc2c(c1)C(C)(C)c1nccc3cc4c(c-2c13)OCO4`, the “Ratio IC50” value is reported as 40.
